Assay results taken from patent publication US12258571B2, “Methods and compositions for inducible expression of neurotrophic factors” (CEDARS-SINAI MEDICAL CENTER, priority 2018, dated 2025).
Values joined by “and” are separate entries in the source; they are usually repeats but may differ in a detail not shown here. Identical values can stand only once.

Tests used:
[1] = system: TRE-Bi promoter; experiment: Flow analysis of GFP induction after extensive cell expansion and freeze; format: cell-based, human; conditions: 24 hours after adding dox; cells 6 months in culture after nucleofection, two freeze/thaw cycles
Method: FIG. 5. IPSC-derived NPCs nucleofected with pB-RTP-Tet-GDNF/memClover-FLuc retain their ability to be induced upon the addition of dox. 83% of BF^+ cells were also GFP^+ (P5 Gate) 24 hours after adding dox to cells that were grown in culture for 6 months after nucleofection. Note: Cells were also exposed to two freeze/thaw cycles and were frozen for a total of 10 months during this period.
To quantitatively assess reporter expression from the TRE-Bi promoter, iNPCs were nucleofected as above, along with an Ef1-Renilla plasmid that constitutively expresses Renilla luciferase for protein normalization. […] To assess the kinetics of the TRE-Bi inducible promoter, firefly luciferase activity was quantified in a live culture of the nucleofected iNPCs grown in the presence of beetle luciferin (FIG. 1F). […] As a clinically-relevant cell product would need to be expanded and banked, the Inventors assessed if the TRE-Bi promoter would remain functionally responsive with an extensive cell expansion and freeze.

[2] = system: TRE-Bi promoter; experiment: Dual-luciferase assay in nucleofected iNPCs; format: cell-based, human; conditions: 24-hour dox treatment; iNPCs nucleofected with pB-RTP-Tet-GDNF/memClover-FLuc, pBase and Ef1-Renilla
Method: In all experiments, dox solution was maintained in light protection and 4° C. For cell culture, dox (Clontech 631311) was added to culture media at 100 ng/ml. For in vivo work, animals were administered dox (15 μg dox/g weight) every 3-4 days by oral gavage (e.g. 60 μl for a 20 g animal), using a soft-tipped feeding needle (Instech FTP-20-30; Plymouth Meeting, PA) attached to a 1 ml syringe (BD 309659; Franklin Lakes, NJ). To quantitatively assess reporter expression from the TRE-Bi promoter, iNPCs were nucleofected as above, along with an Ef1-Renilla plasmid that constitutively expresses Renilla luciferase for protein normalization. […] To assess the kinetics of the TRE-Bi inducible promoter, firefly luciferase activity was quantified in a live culture of the nucleofected iNPCs grown in the presence of beetle luciferin (FIG. 1F). […] As a clinically-relevant cell product would need to be expanded and banked, the Inventors assessed if the TRE-Bi promoter would remain functionally responsive with an extensive cell expansion and freeze.

[3] = system: GDNF; experiment: Blinded postmortem GDNF scoring (DAB stain) of transplanted tissue; format: in vivo, NOD-SCID mice; design: key: (−) no positive staining; (+) slight staining; (++) moderate staining; (+++) extensive staining; conditions: one line per animal; for GDNF Str/CC: striatum/corpus callosum
Method: In all experiments, dox solution was maintained in light protection and 4° C. For cell culture, dox (Clontech 631311) was added to culture media at 100 ng/ml. For in vivo work, animals were administered dox (15 μg dox/g weight) every 3-4 days by oral gavage (e.g. 60 μl for a 20 g animal), using a soft-tipped feeding needle (Instech FTP-20-30; Plymouth Meeting, PA) attached to a 1 ml syringe (BD 309659; Franklin Lakes, NJ). Nucleofected iNPCs, which underwent two rounds of FACS for BFP, were transplanted into the striatum (41 of cells at 100,000 cells/μ1 into each hemisphere) of 6-month old NOD-SCID mice (Nod.cb17-Prkdc^scid/J, Jackson Lab #1303; Bar Harbor, ME). Three days before transplantation, a subset of cells was treated with dox. For transplantation, cells were dissociated and diluted to a final concentration of 100,000 cells/μl in conditioned media, and maintained on ice. Animals were anesthetized with isoflurane and placed in a stereotaxic frame. Cells were injected bilaterally relative to bregma at 0.7 mm rostral and +/−2.0 mm lateral. A 5 μl Hamilton microsyringe backfilled with PBS was loaded with 2 μl of cell solution and inserted to a depth of −4.00 mm. The microsyringe was then raised to −3.50 mm and the cell solution was injected at 1 μl/min. After cell injection, the microsyringe was raised to −3.00 mm, held for 2 minutes and slowly withdrawn. Animals were checked daily. Immunostained sections were photographed using a Leica DM200 LED microscope. Images were scored based on stain intensity of DAB GDNF stain by an observer blinded to the experiment conditions (dox vs no dox). Finally, DAB staining, which provides a high sensitivity of protein detection and has effectively tracked human GDNF-expressing NPC transplants, was used to determine the levels and location of GDNF expression.

[4] = animals that ended trial OFF dox (dox withdrawn)
[5] = animals that ended trial ON dox

SMILES: C[C@H]1c2cccc(O)c2C(=O)C2=C(O)[C@]3(O)C(=O)C(C(N)=O)=C(O)[C@@H](N(C)C)[C@@H]3[C@@H](O)[C@@H]21 [dox, doxycycline]
- BFP+ cells induced to express GFP [1]: 83%
- increase in firefly luciferase activity (normalized to Renilla) [2]: ~1300 fold
- GDNF Meninges [3, 4]: −
- GDNF Str/CC [3, 4]: −
- GDNF Meninges [3, 5]: +++ and − (3×) and + (2×) and ++
- GDNF Str/CC [3, 5]: − (3×) and ++ (3×) and +
